One assay deals with AT1 receptor. As to the kind of experiment: Angiotensin II dose-response curves for changes in carotid arterial pressure (confirmation of AT1 receptor blockade). The note with it: losartan 2 g/L in drinking water for 2 weeks; normal rats and rats with chronic MI. The assay is classed as in vivo, rat. As to the method: In order to confirm AT1 receptor blockade with losartan, angiotensin II dose-response curves for changes in carotid arterial pressure were carried out in an additional 14 female Sprague-Dawley rats (260-300 g/each). Eight rats were normal, 4 untreated and 4 treated for 2 weeks with losartan (2 g/L in drinking water). In 6 rats a large MI was produced 3 to 4 weeks prior to study, of which 3 received losartan (2 g/L in drinking water) for 2 weeks and 3 were untreated.

A further assay concerns normal rats. As to the kind of experiment: Body, organ and cardiac weights in normal rats after AT1 blockade and GH. The class given is in vivo, rat. The note with it: mean ± SD, n=8. As to the method:
Normal Rats: Normal female Sprague Dawley rats (240-260 g each) were randomized to one of the following four groups: rats receiving placebo for 6 weeks (Control group, n=8); rats treated with placebo for 6 weeks with concomitant rhGH (2 mg/kg bid) for the final 2 weeks (GH group, n=8); rats treated with relatively low-dose losartan (L) (20 mg/kg/day in drinking water) for 6 weeks with concomitant rhGH (2 mg/kg/bid, SC) during the final 2 weeks (LowL+GH, n=8); and rats treated with high dose L (2 g/L in drinking water) for 6 weeks with concomitant rhGH (2 mg/kg/bid, SC) during the final 2 weeks (HighL+GH, n=8). In these 32 animals, the responses of body weight (BW) and the weights of the heart and other selected organs were then examined.
After the hemodynamic measurements, the rats were euthanized and wet weights of heart and other selected organs, including liver, spleen, and kidney, were measured. Cardiac fixation was then performed as described by R. L. Duerr (1996) supra. In brief, polyethylene catheters were introduced into the LV apex and the descending aorta. The LV chamber was filled from a reservoir and maintained at 10 mmHg. After washout of blood from the coronary arteries with heparinized saline, the myocardium was perfused retrogradely from the aorta with 10% buffered formalin at a constant pressure of 60 mmHg for 20 minutes. The heart was then excised and immersed in 10% formalin for 24 hours. Subsequently, the atria and adhesions were dissected away and the right ventricle (RV) and LV were separated and weighted, the interventricular septum being included with the LV. The right tibia was dissected and its length from the condyles to the tip of the medial malleolus was measured with a micrometer caliper by the method of Yin et al., Am J Physiol (1982); 243. To compare heart weights among groups, the weights were normalized by tibial length (TL) as well as by body weight (BW).

As for `CCCCc1nc(Cl)c(CO)n1Cc1ccc(-c2ccccc2-c2nn[nH]n2)cc1` [Losartan, losartan], the “shift of angiotensin II-blood pressure dose-response curves” value with AT1 receptor is reported as “marked rightward shifts”.
For the compound “GH: recombinant human growth hormone; placebo 6 weeks with rhGH 2 mg/kg bid for the final 2 weeks”, in the assay with normal rats (6 weeks, rhGH final 2 weeks), the “BW (body weight)” value is on record as 319.9 ± 15.9 g, the Kidney weight is listed as 2.30 ± 0.19 g, the Liver weight was 13.69 ± 0.94 g and the Spleen weight came out at 1.21 ± 0.10 g. The “TL (tibia length)” value with normal rats (6 weeks, rhGH final 2 weeks) worked out at 4.05 ± 0.08 cm. In the assay on normal rats, this compound had an HW/BW of 0.45 ± 0.04%, an LV/BW of 0.33 ± 0.01% and an RV/BW of 0.08 ± 0.01%. In addition, in the assay on normal rats (measured after fixation), the LV wt is recorded as 1.04 ± 0.06 g and the RV wt is on record as 0.26 ± 0.02 g. For the same compound, the “HW (heart weight)” value in the assay with normal rats (measured before fixation) was 1.42 ± 0.12 g.

These data come from patent US6770624B2, “Treatment of heart failure with growth hormone” (The Regents of the University of California, priority 1997, dated 2004).
